From patent US9512169B2, “3-substituted estra-1,3,5(10),16-tetraene derivatives, methods for the production thereof, pharmaceutical preparations containing same, and use thereof for the production of medicaments” (BAYER PHARMA AKTIENGESELLSCHAFT, priority 2012, dated 2016)
“And” between values parts separate entries of the source, which are not always exact repeats. Identical values can stand only once.

These molecules were tested against T1, AKR1C3 (Homo sapiens (Human), UniProt P42330) (assay: AKR1C3 inhibition in a cell-based system (HEK293 cells transfected with AKR1C3 expression plasmid, coumberol fluorescence)). Conditions: HEK293 cells transfected with AKR1C3, incubation overnight; repeated lines = independent determinations; read-out: Cellular AKR1C3 inhibition IC50.
T1 sequence (P42330 whole entry): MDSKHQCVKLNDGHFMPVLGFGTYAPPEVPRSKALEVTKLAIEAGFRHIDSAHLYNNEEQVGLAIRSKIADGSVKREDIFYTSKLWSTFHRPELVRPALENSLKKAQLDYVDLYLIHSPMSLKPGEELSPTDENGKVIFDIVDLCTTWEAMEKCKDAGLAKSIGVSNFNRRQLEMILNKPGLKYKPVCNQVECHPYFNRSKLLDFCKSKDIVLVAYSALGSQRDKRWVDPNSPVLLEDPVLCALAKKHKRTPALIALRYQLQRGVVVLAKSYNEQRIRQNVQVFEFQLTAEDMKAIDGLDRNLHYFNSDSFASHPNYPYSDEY
Protocol: The inhibition of AKR1C3 by the substances described in the present invention was measured in a cell-based assay using […] as substrate for the AKR1C3 (Halim, M., Yee, D. J., and Sames, D., J. AM. CHEM. SOC. 130, 14123-14128 (2008) and Yee, D. J., Balsanek, V., Bauman, D. R., Penning, T. M., and Sames, D., Proc. Natl. Acad. Sci. USA 103, 13304-13309 (2006)) (cf. Example 20).
The cell system used were HEK293 cells (ATCC, USA) (cell culture medium: DMEM, 1.5 g glucose, 10% FCS, PSG). The cells were transfected in an AKR1C3 expression plasmid (pCMV6-AC-AKR1C3, GenBank Accession No. NM_003739.4) overnight (X-tremeGENE HP, Roche). The next morning, the cells were sown in black 96well cell culture plates at a cell density of 40000 cells/well (Greiner Bio-One, Frickenhausen, Germany). After 7 h, the cells were incubated with the test substances (dissolved in 100× concentration in DMSO, final concentration between 10^−11M and 10^−5M) and […] (dissolved in cell culture medium, final concentration 5×10^−6M) overnight. The next morning, the fluorescence of coumberol was measured at 535 nm (excitation at 355 nm) using a suitable measuring instrument (Mithras, from Berthold). The fluorescence intensity was used as a measure of the amount of coumberol formed and thus of the enzyme activity of AKR1C3. The data were normalized (transfected cells without inhibitor, only DMSO=0% inhibition; transfected cells, 10 μM inhibitor EM-1404 [F. Labrie et al. U.S. Pat. No. 6,541,463, 2003]=100% inhibition), and the IC50 values were calculated using a 4-parameter fit.
In the cell-based assay described above, the pharmacological substances claimed were examined for their inhibitory activity on the AKR1C3 enzyme (see Table 2).

SMILES	IC50
CC(C)(COc1ccc2c(c1)CC[C@@H]1[C@@H]2CC[C@]2(C)C(c3cncc(F)c3)=CC[C@@H]12)C(=O)O [Example 8, 3-{[17-(5-Fluoropyridin-3-yl)estra-1,3,5(10),16-tetraen-3-yl]oxy}-2,2-dimethylpropanoic acid]	0.17 µM and 0.22 µM
C[C@]12CC[C@@H]3c4ccc(OCC(=O)O)cc4CC[C@H]3[C@@H]1CC=C2c1cncc(F)c1 [Example 3, {[17-(5-Fluoropyridin-3-yl)estra-1,3,5(10),16-tetraen-3-yl]oxy}acetic acid]	0.049 µM and 0.056 µM and 0.031 µM
C[C@]12CC[C@@H]3c4ccc(OCC(=O)O)cc4CC[C@H]3[C@@H]1CC=C2c1cncc(C(F)(F)F)c1 [Example 2, ({17-[5-(Trifluoromethyl)pyridin-3-yl]estra-1,3,5(10),16-tetraen-3-yl}oxy)acetic acid]	0.048 µM and 0.068 µM

Each molecule was assayed against T1, AKR1C3 (assay: AKR1C3 enzyme inhibition assay (Coumberone to Coumberol fluorescence)). Conditions: recombinant human AKR1C3, 15 min pre-incubation, 90 min at 22° C.; repeated lines = two experimental determinations.
Type: biochemical
Protocol: The AKR1C3-inhibitory activity of the substances of the present invention was measured in the AKR1C3 assay described in the paragraphs below.
Essentially, the enzyme activity is measured by quantification of the Coumberol from Coumberone (Halim, M., Yee, D. J., and Sames, D., J. AM. CHEM. SOC. 130, 14123-14128 (2008) and Yee, D. J., Balsanek, V., Bauman, D. R., Penning, T. M., and Sames, D., Proc. Natl. Acad. Sci. USA 103, 13304-13309 (2006)). In this test, the increase of the highly fluorescent Coumberol by NADPH- (nicotinamide adenine dinucleotide phosphate)-dependent reduction of the non-fluorescent Coumberone by AKR1C3 can be determined.
The enzyme used was recombinant human AKR1C3 (Aldo-keto reductase family 1 member C3) (GenBank Accession No. NM_003739). This was expressed in E. coli as GST (glutathione S transferase) fusion protein and purified by glutathione Sepharose affinity chromatography. The GST was removed by digestion with thrombin and subsequent size exclusion chromatography (Dufort, I., Rheault, P., Huang, X F., Soucy, P., and Luu-The, V., Endocrinology 140, 568-574 (1999)).
For the assay, 50 nl of a 100-fold concentrated solution of the test substance in DMSO were pipetted into a black low-volume 384-well microtiter plate (Greiner Bio-One, Frickenhausen, Germany), 2.0 μl of a solution of AKR1C3 in assay buffer [50 mM potassium phosphate buffer pH 7, 1 mM DTT, 0.0022% (w/v) Pluronic F-127, 0.01% BSA (w/v) and protease inhibitor cocktail (Complete, EDTA-free Protease Inhibitor Cocktail from Roche)] were added and the mixture was incubated for 15 min to allow pre-binding of the substances to the enzyme prior to the enzyme reaction. The enzyme reaction was then started by addition of 3 μl of a solution of NADPH (16.7 μM→final concentration in 5 μl of assay volume is 10 μM) and Coumberone (0.5 μM→final concentration in 5 μl of assay volume is 0.3 μM) in assay buffer, and the resulting mixture was incubated at 22° C. for the reaction time of 90 min. The concentration of the AKR1C3 was adapted to the respective activity of the enzyme preparation and adjusted such that the assay was carried out in the linear range. Typical concentrations were in the region of 1 nM. The reaction was stopped by addition of 5 μl of a stop solution consisting of the inhibitor EM-1404 [F. Labrie et al. U.S. Pat. No. 6,541,463, 2003] (2 μM→final concentration in […] is 1 μM). The fluorescence of the Coumberole was then measured at 520 nm (excitation at 380 nm) using a suitable measuring instrument (Pherastar from BMG Labtechnologies). The intensity of the fluorescence was used as a measure of the amount of Coumberole formed and thus of the enzyme activity of AKR1C3. The data were normalized (enzyme reaction without inhibitor=0% inhibition; all other assay components, but no enzyme=100% inhibition).
As described, the pharmacological substances claimed were examined for their inhibitory activity on the AKR1C3 enzyme (see Table 1). The compounds claimed show a strong inhibition of AKR1C3 in vitro (IC50 values <200 nM) and in most cases even IC50 values <50 nM.

SMILES	IC50
CC(C)(COc1ccc2c(c1)CC[C@@H]1[C@@H]2CC[C@]2(C)C(c3cncc(F)c3)=CC[C@@H]12)C(=O)O [Example 8, 3-{[17-(5-Fluoropyridin-3-yl)estra-1,3,5(10),16-tetraen-3-yl]oxy}-2,2-dimethylpropanoic acid]	0.012 µM and 0.011 µM
CC(Oc1ccc2c(c1)CC[C@@H]1[C@@H]2CC[C@]2(C)C(c3cncc(F)c3)=CC[C@@H]12)C(=O)O (mixture of isomers) [Example 10, (RS)-2-{[17-(5-Fluoropyridin-3-yl)estra-1,3,5(10),16-tetraen-3-yl]oxy}propanoic acid]	0.0027 µM
CC(C)(CO)COc1ccc2c(c1)CC[C@@H]1[C@@H]2CC[C@]2(C)C(c3cncc(F)c3)=CC[C@@H]12 [Example 16, 3-{[17-(5-Fluoropyridin-3-yl)estra-1,3,5(10),16-tetraen-3-yl]oxy}-2,2-dimethylpropan-1-ol]	0.124 µM
C[C@]12CC[C@@H]3c4ccc(OCC(=O)O)cc4CC[C@H]3[C@@H]1CC=C2c1cncnc1 [Example 5, {[17-(Pyrimidin-5-yl)estra-1,3,5(10),16-tetraen-3-yl]oxy}acetic acid]	0.089 µM
C[C@]12CC[C@@H]3c4ccc(OCCCO)cc4CC[C@H]3[C@@H]1CC=C2c1cncc(F)c1 [Example 15, 3-{[17-(5-Fluoropyridin-3-yl)estra-1,3,5(10),16-tetraen-3-yl]oxy}propan-1-ol]	0.054 µM
C[C@]12CC[C@@H]3c4ccc(OCC(=O)O)cc4CC[C@H]3[C@@H]1CC=C2c1cncc(F)c1 [Example 3, {[17-(5-Fluoropyridin-3-yl)estra-1,3,5(10),16-tetraen-3-yl]oxy}acetic acid]	0.016 µM and 0.0086 µM
CCNC(=O)COc1ccc2c(c1)CC[C@@H]1[C@@H]2CC[C@]2(C)C(c3cncc(C(F)(F)F)c3)=CC[C@@H]12 [Example 19, N-Ethyl-2-({17-[5-(trifluoromethyl)pyridin-3-yl]estra-1,3,5(10),16-tetraen-3-yl}oxy)acetamide]	0.053 µM
Cc1ccc(C2=CC[C@H]3[C@@H]4CCc5cc(OCC(=O)O)ccc5[C@H]4CC[C@]23C)cn1 [Example 4, {[17-(6-Methylpyridin-3-yl)estra-1,3,5(10),16-tetraen-3-yl]oxy}acetic acid]	0.136 µM
Cc1cc(C2=CC[C@H]3[C@@H]4CCc5cc(OCC(=O)O)ccc5[C@H]4CC[C@]23C)cnn1 [Example 7, {[17-(6-Methylpyridazin-4-yl)estra-1,3,5(10),16-tetraen-3-yl]oxy}acetic acid]	0.0014 µM
COCC(Oc1ccc2c(c1)CC[C@@H]1[C@@H]2CC[C@]2(C)C(c3cncc(F)c3)=CC[C@@H]12)C(=O)O (mixture of isomers) [Example 12, (RS)-2-{[17-(5-Fluoropyridin-3-yl)estra-1,3,5(10),16-tetraen-3-yl]oxy}-3-methoxy-propanoic acid]	0.004 µM
C[C@]12CC[C@@H]3c4ccc(OCCCC(=O)O)cc4CC[C@H]3[C@@H]1CC=C2c1cncc(F)c1 [Example 9, 4-{[17-(5-Fluoropyridin-3-yl)estra-1,3,5(10),16-tetraen-3-yl]oxy}butanoic acid]	0.042 µM
CCC(Oc1ccc2c(c1)CC[C@@H]1[C@@H]2CC[C@]2(C)C(c3cncc(F)c3)=CC[C@@H]12)C(=O)O (mixture of isomers) [Example 11, (RS)-2-{[17-(5-Fluoropyridin-3-yl)estra-1,3,5(10),16-tetraen-3-yl]oxy}butanoic acid]	0.0025 µM
C[C@]12CC[C@@H]3c4ccc(OC(C(=O)O)c5ccccc5)cc4CC[C@H]3[C@@H]1CC=C2c1cncc(F)c1 (mixture of isomers) [Example 18, (RS)-{[17-(5-Fluoropyridin-3-yl)estra-1,3,5(10),16-tetraen-3-yl]oxy}(phenyl)acetic acid]	0.01 µM
C[C@]12CC[C@@H]3c4ccc(OCC(=O)O)cc4CC[C@H]3[C@@H]1CC=C2c1cncc(C(=O)O)c1 [Example 6, 5-[3-(Carboxymethoxy)estra-1,3,5(10),16-tetraen-17-yl]nicotinic acid]	0.0092 µM
C[C@]12CC[C@@H]3c4ccc(OCC(O)CO)cc4CC[C@H]3[C@@H]1CC=C2c1cncc(F)c1 (mixture of isomers) [Example 17, (RS)-3-{[17-(5-Fluoropyridin-3-yl)estra-1,3,5(10),16-tetraen-3-yl]oxy}propan-1,2-diol]	0.025 µM
CC(Oc1ccc2c(c1)CC[C@@H]1[C@@H]2CC[C@]2(C)C(c3cncc(F)c3)=CC[C@@H]12)C(N)=O (mixture of isomers) [Example 14, (RS)-2-{[17-(5-Fluoropyridin-3-yl)estra-1,3,5(10),16-tetraen-3-yl]oxy}propanamide]	0.02 µM
C[C@]12CC[C@@H]3c4ccc(OCC(=O)O)cc4CC[C@H]3[C@@H]1CC=C2c1cncc(C(F)(F)F)c1 [Example 2, ({17-[5-(Trifluoromethyl)pyridin-3-yl]estra-1,3,5(10),16-tetraen-3-yl}oxy)acetic acid]	0.033 µM and 0.023 µM
CC(Oc1ccc2c(c1)CC[C@@H]1[C@@H]2CC[C@]2(C)C(c3cccnc3)=CC[C@@H]12)C(=O)O (mixture of isomers) [Example 13, (RS)-2-{[17-(3-Pyridyl)estra-1,3,5(10),16-tetraen-3-yl]oxy}propanoic acid]	0.0028 µM
